From ChEMBL document CHEMBL1148139, “Antiangiogenic activity of synthetic dihydrobenzofuran lignans” (J Nat Prod, 2002) come the findings set out here.

Calls of active or inactive are those of the source. The calls are words filed in the database; no cut-off is given here.

The species entered for data set [1] is Gallus gallus. The experiment in a line: Antiangiogenic activity in fertilized chicken eggs at 5 ug/pellet by CAM assay. Format: functional. To be noted: Egg.
Data set [2] is described as follows: Toxicity to fertilized chicken eggs assessed as membrane irritating activity at 20 ug/pellet. On the set-up: species or system Gallus gallus. To be noted: in vivo, other.
Data set [3] is filed under the species Gallus gallus. The experiment in a line: Antiangiogenic activity in fertilized chicken eggs at 20 ug/pellet by CAM assay. Format: functional. The settings on record: Egg.

In the case of `COC(=O)/C=C/c1cc(O)c2c(c1)[C@@H](C(=O)OC)[C@H](c1ccc(O)c(O)c1)O2`, the outcome in the data set filed under Gallus gallus [1] and in the data set filed under Gallus gallus [3] was Active. Moreover, in data set [2], the Activity came out at 50%.
